# According to PMC9944328 (Nature Communications, 2023):
# System: SSTR2 mutants
# Experiment: NanoBiT β-arrestin 1 recruitment assay, HEK293 (SSTR2 mutants);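 on Best-fit Bottom: percent of maximal wild-type SSTR2 response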;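 on Best-fit Span: percent of maximal wild-type SSTR2 response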;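 on Best-fit Top: percent of maximal wild-type SSTR2 response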;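 on Bottom (best-fit): percent of maximal wild-type response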;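 on Span (best-fit value): percent of maximal wild-type response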;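 on Span (best-fit): percent of maximal wild-type response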;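 on Top (best-fit value): percent of maximal wild-type response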;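 on Top (best-fit): percent of maximal wild-type response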
# Format: cell-based, human
# Details: for Bottom (β-arrestin1 recruitment) / LogEC50 (β-arrestin1 recruitment) / Span (β-arrestin1 recruitment) / Top (β-arrestin1 recruitment): best-fit
# Method: The NanoBiT β-arrestin 1 recruitment assays were carried out according to the method described previously. […] Human full-length SSTR wild-type and mutant vectors were C-terminally fused with a 15-amino acid flexible linker and the small fragment (SmBiT). HEK293 cells were seeded into six-well microplates at a density of 1.0 × 10^6 cells/well and cultured for 24 h at 37 °C with 5% CO2. After that, cells were co-transfected with pcDNA3.1+ vectors encoding SSTR wild-type or mutants and human β-arrestin 1. After transfecting for 24 h, the transfected cells were suspended and seeded into white 96-well plates, and then cultured at 37 °C overnight. After that the medium in each well was exchanged for 90 μl of 0.01% bovine serum albumin containing 20 μl of 50 μM coelenterazine h (Carbosynth) diluted in the HBSS assay buffer and incubated for 40 min at room temperature. Then, ligands diluted in the assay buffer was added to each well and the luminescence intensity was measured using the Synergy H1 microplate reader and detected at room temperature in a time period. All data presented are means of at least three independent experiments.
structure (smiles),measurement,setting,value
N#Cc1cccc(-c2ccc3ncc(-c4cc(F)cc(F)c4)c(N4CCC(N)CC4)c3c2)c1O [paltusotine],Bottom (best-fit),F127A-1,-1.415
same,LogEC50 (best-fit),F127A-1,-6.677
same,Span (best-fit),F127A-1,63.7
same,Top (best-fit),F127A-1,62.28
same,Bottom (best-fit),F127A-2,-1.034
same,LogEC50 (best-fit),F127A-2,-6.706
same,Span (best-fit),F127A-2,59.48
same,Top (best-fit),F127A-2,58.45
same,Bottom (best-fit),F127A-3,-1.184
same,LogEC50 (best-fit),F127A-3,-6.817
same,Span (best-fit),F127A-3,69.08
same,Top (best-fit),F127A-3,67.89
same,β-arrestin recruitment of mutant,F294(7.35)A,slightly influenced the β-arrestin pathway
same,β-arrestin recruitment of mutants,"I284ECL3A, K291(7.32)A and N276(6.55)A",slightly enhanced recruitment of β-arrestin
same,Best-fit Bottom,"SSTR2 I284A, run 1",-1.437
same,Best-fit LogEC50,"SSTR2 I284A, run 1",-6.742
same,Best-fit Span,"SSTR2 I284A, run 1",206.6
same,Best-fit Top,"SSTR2 I284A, run 1",205.2
same,Best-fit Bottom,"SSTR2 I284A, run 2",-1.082
same,Best-fit LogEC50,"SSTR2 I284A, run 2",-6.742
same,Best-fit Span,"SSTR2 I284A, run 2",155.6
same,Best-fit Top,"SSTR2 I284A, run 2",154.5
same,Best-fit Bottom,"SSTR2 I284A, run 3",-1.233
same,Best-fit LogEC50,"SSTR2 I284A, run 3",-6.745
same,Best-fit Span,"SSTR2 I284A, run 3",219.6
same,Best-fit Top,"SSTR2 I284A, run 3",218.3
same,Bottom (best-fit value),"SSTR2 W269A, run W269A-1",-0.1166
same,LogEC50 (best-fit value),"SSTR2 W269A, run W269A-1",-6.523
same,Span (best-fit value),"SSTR2 W269A, run W269A-1",23.55
same,Top (best-fit value),"SSTR2 W269A, run W269A-1",23.43
same,Bottom (best-fit value),"SSTR2 W269A, run W269A-2",-0.1813
same,LogEC50 (best-fit value),"SSTR2 W269A, run W269A-2",-6.214
same,Span (best-fit value),"SSTR2 W269A, run W269A-2",28.45
same,Top (best-fit value),"SSTR2 W269A, run W269A-2",28.27
same,Bottom (best-fit value),"SSTR2 W269A, run W269A-3",0.3375
same,LogEC50 (best-fit value),"SSTR2 W269A, run W269A-3",-6.325
same,Span (best-fit value),"SSTR2 W269A, run W269A-3",20.32
same,Top (best-fit value),"SSTR2 W269A, run W269A-3",20.66
same,Best-fit Bottom,"SSTR2 Y50A, run 1",-1.913
same,Best-fit LogEC50,"SSTR2 Y50A, run 1",-7.128
same,Best-fit Span,"SSTR2 Y50A, run 1",70.62
same,Best-fit Top,"SSTR2 Y50A, run 1",68.71
same,Best-fit Bottom,"SSTR2 Y50A, run 2",-2.472
same,Best-fit LogEC50,"SSTR2 Y50A, run 2",-7.187
same,Best-fit Span,"SSTR2 Y50A, run 2",103.4
same,Best-fit Top,"SSTR2 Y50A, run 2",100.9
same,Best-fit Bottom,"SSTR2 Y50A, run 3",-2.529
same,Best-fit LogEC50,"SSTR2 Y50A, run 3",-7.176
same,Best-fit Span,"SSTR2 Y50A, run 3",105.2
same,Best-fit Top,"SSTR2 Y50A, run 3",102.6
same,Bottom (best-fit value),"SSTR2 Y205A, run Y205A-1",-3.142
same,LogEC50 (best-fit value),"SSTR2 Y205A, run Y205A-1",-6.819
same,Span (best-fit value),"SSTR2 Y205A, run Y205A-1",125.5
same,Top (best-fit value),"SSTR2 Y205A, run Y205A-1",122.3
same,Bottom (best-fit value),"SSTR2 Y205A, run Y205A-2",-4.259
same,LogEC50 (best-fit value),"SSTR2 Y205A, run Y205A-2",-6.824
same,Span (best-fit value),"SSTR2 Y205A, run Y205A-2",138.9
same,Top (best-fit value),"SSTR2 Y205A, run Y205A-2",134.6
same,Bottom (best-fit value),"SSTR2 Y205A, run Y205A-3",-4.015
same,LogEC50 (best-fit value),"SSTR2 Y205A, run Y205A-3",-6.671
same,Span (best-fit value),"SSTR2 Y205A, run Y205A-3",203.2
same,Top (best-fit value),"SSTR2 Y205A, run Y205A-3",199.2
same,β-arrestin signal of mutant,V103(2.64)A,markedly reduced the paltusotine-induced β-arrestin signal
same,Bottom (β-arrestin1 recruitment),D295A-1,0.727
same,LogEC50 (β-arrestin1 recruitment),D295A-1,-5.635
same,Span (β-arrestin1 recruitment),D295A-1,100
same,Top (β-arrestin1 recruitment),D295A-1,100.7
same,Bottom (β-arrestin1 recruitment),D295A-2,1.431
same,LogEC50 (β-arrestin1 recruitment),D295A-2,-5.595
same,Span (β-arrestin1 recruitment),D295A-2,100.8
same,Top (β-arrestin1 recruitment),D295A-2,102.3
same,Bottom (β-arrestin1 recruitment),D295A-3,0.3814
same,LogEC50 (β-arrestin1 recruitment),D295A-3,-5.706
same,Span (β-arrestin1 recruitment),D295A-3,93.14
same,Top (β-arrestin1 recruitment),D295A-3,93.53
same,Bottom (β-arrestin1 recruitment),F294A-1,-2.632
same,LogEC50 (β-arrestin1 recruitment),F294A-1,-5.979
same,Span (β-arrestin1 recruitment),F294A-1,125.8
same,Top (β-arrestin1 recruitment),F294A-1,123.2
same,Bottom (β-arrestin1 recruitment),F294A-2,-1.982
same,LogEC50 (β-arrestin1 recruitment),F294A-2,-5.979
same,Span (β-arrestin1 recruitment),F294A-2,94.75
same,Top (β-arrestin1 recruitment),F294A-2,92.77
same,Bottom (β-arrestin1 recruitment),F294A-3,-2.454
same,LogEC50 (β-arrestin1 recruitment),F294A-3,-6.059
same,Span (β-arrestin1 recruitment),F294A-3,130.8
same,Top (β-arrestin1 recruitment),F294A-3,128.3
same,Bottom (β-arrestin1 recruitment),K291A-1,-2.723
same,LogEC50 (β-arrestin1 recruitment),K291A-1,-7.098
same,Span (β-arrestin1 recruitment),K291A-1,158
same,Top (β-arrestin1 recruitment),K291A-1,155.2
same,Bottom (β-arrestin1 recruitment),K291A-2,-3.352
